Reference: US11702417B2, “Compounds for improving mRNA splicing” (The General Hospital Corporation, priority 2015, dated 2023)
Read-outs that look alike come from different tables or passages of the source.

Test system: FD (familial dysautomonia) IKBKAP minigene, exon 20 inclusion, in HEK293T cells
Test: Primary splicing assay (FD IKBKAP minigene, Firefly/Renilla luciferase reporter in HEK293T)
Assay type: cell-based, human
Conditions: for Emax / EC (maximum kinetin efficacy): Homo sapiens, HEK-293T; for ECk (RT-PCR): determined by RT-PCR, footnote a Firefly inhibitor, footnote b Renilla interference; for EC (maximum kinetin efficacy): HEK293T, read-out: ECk (compound concentration at which the maximum kinetin efficacy (200 μM) is reached)
[1] = max efficacy in Primary Assay, Firefly/Renilla ratio, kinetin and DMSO as positive and negative controls, 24 hours of treatment, read-out: Emax (%)
[2] = Firefly/Renilla ratio, 24 hours of treatment

SMILES	Emax [1]	EC (maximum kinetin efficacy) [2]	further results
Cc1[nH]c2nc(Cl)nc(NCc3ccncn3)c2c1F [(204)]	27%		
Cc1c[nH]c2nc(Cl)nc(NCc3ccco3)c12 [(84)]			Emax (max efficacy, value marked (RT-PCR), footnote a: Firefly inhibitor, read-out: Emax (%) (RT-PCR)): 251%; ECk (RT-PCR): 1 to 10 µM
COC(=O)COc1nc2c(NCc3nccs3)nc(Cl)nc2[nH]1 [(504)]	80%		
Clc1cc(NCc2ccco2)c2nc[nH]c2n1 [(198)]	125%	5.01 µM	
N#Cc1nc2c(NCc3ccco3)nc(Cl)nc2[nH]1 [(162)]	103%	48.7 µM	
Clc1nc(NCc2cncs2)c2nc[nH]c2n1 [(378)]	31.8%		
COc1nc2c(NCc3cncs3)nc(Cl)nc2[nH]1 [(376)]	23.5%		
Clc1nc(NCc2nccs2)c2nc(OCC3CCC3)[nH]c2n1 [(324)]	226%	0.16 µM	
Fc1ccccc1CNc1nc(Cl)nc2[nH]cnc12 [(352)]	25%		
Clc1nc(NCc2ccco2)c2ccsc2n1 [(56)]	152%	8.23 µM	
COCCCOc1nc2c(NCc3ccncc3)nc(Cl)nc2[nH]1 [(291)]	165%	3.47 µM	
OCCCOc1nc2c(NCc3nccs3)nc(Cl)nc2[nH]1 [(276)]	188%	1.13 µM	
Clc1nc(NCc2ccco2)c2[nH]ccc2n1 [(57)]		31.2 µM	
Clc1nc(NCc2ccco2)c2ncn(Cc3ccccn3)c2n1 [(79)]	43%		
Clc1nc(NCc2ccco2)c2nc(OCCc3ccccc3)[nH]c2n1 [(492)]	54.5%		
COc1nc2c(NC(C)c3nccs3)nc(Cl)nc2[nH]1 (stereo not shown) [(370)]	33%		
OCCn1cc(F)c2c(NCc3nccs3)nc(Cl)nc21 [(130)]	201%	8.9 µM	
Clc1nc(NCc2ccncc2)c2ncsc2n1 [(256)]	129%	17.4 µM	
Clc1nc(NCc2ccncn2)c2nc(OCc3nccs3)[nH]c2n1 [(340)]	220%	0.95 µM	
Fc1nc(NCc2ccncc2)c2cc[nH]c2n1 [(380)]	108%	4.38 µM	
CC(C)(O)Cn1ccc2c(NCc3ccco3)nc(Cl)nc21 [(155)]		22.2 µM	Emax (max efficacy in Primary Assay, value flagged footnote a: Firefly inhibitor, read-out: Emax (%)): 151%
O=C(c1cc2c(NCc3ccco3)nc(Cl)nc2[nH]1)N1CCCC1 [(190)]	68%		
CC(F)(F)COc1nc2c(NCc3cscn3)nc(Cl)nc2[nH]1 [(496)]	233%	1.03 µM	

SMILES	Emax [1]	EC (maximum kinetin efficacy) [2]	further results
Clc1nc(NCc2ccccn2)c2cc[nH]c2n1 [(350)]	49.5%		
FC(F)(F)c1cccc(Nc2ncnc3[nH]cnc23)c1 [(13)]	16%		
Cc1cc(CNc2ncnc3[nH]cnc23)on1 [(8)]	25%		
CCCOc1nc2nc(Cl)nc(NCc3ccncc3)c2n1C [(336)]	20%		
Cn1cnc2c(NCc3nccs3)nc(Cl)nc21 [(301)]	45%		
OCc1c[nH]c2nc(Cl)nc(NCc3ccco3)c12 [(109)]			Emax (max efficacy, Firefly only, footnote c: Renilla interference/Firefly only, read-out: Emax (%) Firefly only): 128%; ECk, Firefly only (Renilla interference/Firefly only (footnote c)): 12.16 µM⁻¹
Cc1cc2c(NCc3ccco3)nc(Cl)nc2n1CCO [(154)]	151%	22.2 µM	
Clc1nc(NCc2ccco2)c2nc(C3CCC3)[nH]c2n1 [(231)]	77%		
Clc1nc(NCc2ccco2)c2nc(OC[C@@H]3CCOC3)[nH]c2n1 [(472)]	151%	1.16 µM	
Clc1nc(NCc2ccncn2)c2nc(OC3COC3)[nH]c2n1 [(267)]	183%	2.4 µM	
Clc1cc(NCc2ccncc2)c2nc[nH]c2n1 [(251)]	258%	3.65 µM	
Clc1nc(NCc2cscn2)c2nc(OCC3CCO3)[nH]c2n1 (stereo not shown) [(493)]	168%	3.05 µM	
CNc1nc2c(NCc3ccncn3)nc(Cl)nc2[nH]1 [(247)]	215%	5.41 µM	
N#Cc1nc(NCc2ccco2)c2nc[nH]c2n1 [(47)]	99%		
c1coc(CNc2ncnc3[nH]ccc23)c1 [(3)]	59%		
Brc1nc(NCc2ccco2)c2nc[nH]c2n1 [(266)]	106%	8.52 µM	
CC(C)(C)OC(=O)N1Cc2nc(Cl)nc(NCc3ccco3)c2C1 [(508)]	80%		
CC(C)(C)COc1nc2c(NCc3ccco3)nc(Cl)nc2[nH]1 [(478)]	84.1%		
CSc1nc(NCc2nccs2)n2ncnc2n1 [(342)]	16%		
Cn1cnc2nc(Cl)nc(NCc3ccco3)c21 [(314)]	198%	2.31 µM	
Clc1nc(NCc2ccco2)c2nc(-c3cccnc3)[nH]c2n1 [(88)]	33%		
Clc1nc(NCc2ccncc2Cl)c2nc[nH]c2n1 [(229)]	55%		
Clc1nc(NCc2cnccn2)c2cc[nH]c2n1 [(353)]	78%		

SMILES	Emax [1]	EC (maximum kinetin efficacy) [2]	further results
Clc1nc(NCc2ccco2)c2nc(N3CCOCC3)[nH]c2n1 [(102)]	52%		
Clc1nc(NCc2ccco2)c2nc(C3CC3)[nH]c2n1 [(95)]	103%	122 µM	
Clc1nc(NCc2ccco2)c2ncn(Cc3ccncc3)c2n1 [(72)]	39%		
Clc1nc(NCc2nccs2)c2nc(OCc3ncco3)[nH]c2n1 [(505)]	140%	8.07 µM	
COCCCOc1nc2c(NCc3ccco3)nc(Cl)nc2[nH]1 [(296)]	178%	1.81 µM	
NC(=O)c1nc2c(NCc3ccco3)nc(Cl)nc2[nH]1 [(238)]	64%	64.8 µM	
N#Cc1c[nH]c2nc(Cl)nc(NCc3ccco3)c12 [(145)]	59%		
FC1(F)CC(COc2nc3c(NCc4cscn4)nc(Cl)nc3[nH]2)C1 [(488)]	206%	1.02 µM	
Clc1nc(NCc2ccco2)c2nc(OCc3ccccc3)[nH]c2n1 [(490)]	176%	0.62 µM	
CC(Nc1nc(Cl)nc2[nH]cnc12)c1nccs1 (stereo not shown) [(368)]	2.4%		
CC(=O)N1CC(Oc2nc3c(NCc4nccs4)nc(Cl)nc3[nH]2)C1 [(469)]	13.3%		
O=C(O)COc1nc2c(NCc3nccs3)nc(Cl)nc2[nH]1 [(511)]	35.1%		
COc1nc2c(NCc3cscn3)nc(Cl)nc2[nH]1 [(375)]	134%	2.18 µM	
COc1nc2c(NCc3ccco3)nc(Cl)nc2n1CCO [(297)]	150%	4.09 µM	
O=c1[nH]c2nc(Cl)nc(NCc3nccs3)c2[nH]1 [(377)]	101%	7.21 µM	
Clc1nc(NCc2ccncc2)c2nc(OCC3CCC3)[nH]c2n1 [(307)]	292%	0.21 µM	
Clc1nc(NCc2ccncc2)c2nc(OC3CCC3)[nH]c2n1 [(294)]	183%	0.44 µM	
FC(F)(F)c1ccc(CCNc2ncnc3[nH]cnc23)cc1 [(26)]	66%		
Clc1nc(NCc2ccco2)c2nc[nH]c2n1 [(323)]	26%		
FCCn1cc(Cl)c2c(NCc3ccco3)nc(Cl)nc21 [(212)]	71%		
Clc1nc(NCc2nccs2)c2nc(OC3COC3)[nH]c2n1 [(265)]	119%	7.33 µM	
Clc1nc(NCc2ccncn2)c2cn[nH]c2n1 [(220)]	153%	8.62 µM	
Cc1cccc(CCNc2ncnc3[nH]cnc23)c1 [(25)]		9.35 µM	

SMILES	Emax [1]	EC (maximum kinetin efficacy) [2]	further results
CCCCOc1nc2c(NCc3nccs3)nc(Cl)nc2[nH]1 [(318)]	186%	0.54 µM	
Fc1cc(CNc2nc(Cl)nc3[nH]ccc23)ccn1 [(487)]	114%	6.1 µM	
Cn1cnc2nc(Cl)nc(NCc3nccs3)c21 [(304)]	166%	4.14 µM	
CC(C)(C)OC(=O)N1Cc2nc(Cl)nc(NCc3nccs3)c2C1 [(509)]	40.8%		
c1cc(CNc2ncnc3[nH]cnc23)ccn1 [(404)]	51%		
c1csc(CNc2ncnc3[nH]cnc23)n1 [(16)]	67%		
c1cc(CNc2ncnc3[nH]cnc23)ncn1 [(68)]	62%		
Cc1cn(CCO)c2nc(Cl)nc(NCc3nccs3)c12 [(125)]	225%	6.52 µM	
CCCOc1nc2c(NCc3cscn3)nc(Cl)nc2[nH]1 [(389)]	211%	0.73 µM	
O=C(O)c1ccc(CNc2nc(Cl)nc3[nH]ccc23)cc1 [(106)]	14%		
OCCCOc1nc2c(NCc3ccco3)nc(Cl)nc2[nH]1 [(249)]	256%	0.72 µM	
Clc1cc(NCc2ccco2)n2ccnc2n1 [(288)]	56%		
Clc1nc(NCc2nccs2)c2nc(C3CC3)[nH]c2n1 [(142)]	121%	16.1 µM	
Fc1cnccc1CNc1nc(Cl)nc2[nH]ccc12 [(226)]	191%	1.8 µM	
N#Cc1c[nH]c2nc(Cl)nc(NCc3ccncc3)c12 [(151)]	73%		
OCCn1ccc2c(NCc3ccco3)nc(Cl)nc21 [(77)]			Emax (max efficacy, value marked (RT-PCR), footnote b: Renilla interference, read-out: Emax (%) (RT-PCR)): 321%; ECk (RT-PCR): 1 to 10 µM
Clc1nc(NCc2ccncn2)c2nc[nH]c2n1 [(129)]	169%	5.6 µM	
CNC(=O)Cn1ccc2c(NCc3ccco3)nc(Cl)nc21 [(161)]	65%		
Clc1nc(NCc2ccncc2)c2cn[nH]c2n1 [(217)]	151%	7.07 µM	
O=c1[nH]c2c(NCc3nccs3)nc(Cl)nc2n1C1CCCCO1 (stereo not shown) [(344)]	18.4%		
CNCc1nc2c(NCc3ccco3)nc(Cl)nc2[nH]1 [(235)]	80%		
